Laboratory results reported in patent US10765114B2, “4-amino-6-(pyridyl and 2-substitutedphenyl)-picolinates and 6-amino-2-(pyridyl and 2-substitutedphenyl)-pyrimidine-4-carboxylates and their use as herbicides” (Dow AgroSciences LLC, priority 2013, dated 2020).

Each compound was assayed on Key Broadleaf Weed and Crop Species (assay: Post-Emergent Test II (Table 5)). Conditions: Abutilon theophrasti, post-emergence, 336 h, ABUTH: velvetleaf (Abutilon theophrasti), application rate 70 (kg ai/ha; footnote: g ai/ha), read-out: Visual Growth Reduction (%) 14 Days After Application ABUTH.
Assay type: in vivo
Summary of the method: (§1)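 Visual injury ratings (0 = no injury, 100 = complete kill) taken 14 days after treatment, relative to untreated controls. Compounds, in an acetone/DMSO aqueous carrier with crop oil and surfactant, were applied by track sprayer at 187 L/ha, in a twofold dilution series from the top rate, to plants at the first to second true-leaf stage.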

SMILES	pest or weed control at 70 g/ha [%]
COC(=O)c1nc(-c2ccc(Cl)c(F)c2C(F)F)cc(N)c1Cl [Compound 53, methyl 4-amino-3-chloro-6-(4-chloro-2-(difluoromethyl)-3-fluorophenyl)picolinate]	85 to 94

Same assay, conditions: Abutilon theophrasti, post-emergence, 336 h, ABUTH: velvetleaf (Abutilon theophrasti), application rate 140 (kg ai/ha; footnote: g ai/ha), read-out: Visual Growth Reduction (%) 14 Days After Application ABUTH

SMILES	pest or weed control at 140 g/ha [%]
COC(=O)c1nc(-c2ccc(Cl)c(F)c2C(F)F)cc(N)c1Cl [Compound 53, methyl 4-amino-3-chloro-6-(4-chloro-2-(difluoromethyl)-3-fluorophenyl)picolinate]	0 to 29

Same assay, conditions: Amaranthus retroflexus, post-emergence, 336 h, AMARE: redroot pigweed (Amaranthus retroflexus), application rate 70 (kg ai/ha; footnote: g ai/ha), read-out: Visual Growth Reduction (%) 14 Days After Application AMARE

SMILES	pest or weed control at 70 g/ha [%]
COC(=O)c1nc(-c2ccc(Cl)c(F)c2C(F)F)cc(N)c1Cl [Compound 53, methyl 4-amino-3-chloro-6-(4-chloro-2-(difluoromethyl)-3-fluorophenyl)picolinate]	95 to 100

Same assay, conditions: Amaranthus retroflexus, post-emergence, 336 h, AMARE: redroot pigweed (Amaranthus retroflexus), application rate 140 (kg ai/ha; footnote: g ai/ha), read-out: Visual Growth Reduction (%) 14 Days After Application AMARE

SMILES	pest or weed control at 140 g/ha [%]
COC(=O)c1nc(-c2ccc(Cl)c(F)c2C(F)F)cc(N)c1Cl [Compound 53, methyl 4-amino-3-chloro-6-(4-chloro-2-(difluoromethyl)-3-fluorophenyl)picolinate]	95 to 100

Same assay, conditions: Brassica napus, post-emergence, 336 h, BRSSS: oilseed rape, canola (Brassica napus), application rate 70 (kg ai/ha; footnote: g ai/ha), read-out: Visual Growth Reduction (%) 14 Days After Application BRSSS

SMILES	pest or weed control at 70 g/ha [%]
COC(=O)c1nc(-c2ccc(Cl)c(F)c2C(F)F)cc(N)c1Cl [Compound 53, methyl 4-amino-3-chloro-6-(4-chloro-2-(difluoromethyl)-3-fluorophenyl)picolinate]	45 to 59

Same assay, conditions: Brassica napus, post-emergence, 336 h, BRSSS: oilseed rape, canola (Brassica napus), application rate 140 (kg ai/ha; footnote: g ai/ha), read-out: Visual Growth Reduction (%) 14 Days After Application BRSSS

SMILES	pest or weed control at 140 g/ha [%]
COC(=O)c1nc(-c2ccc(Cl)c(F)c2C(F)F)cc(N)c1Cl [Compound 53, methyl 4-amino-3-chloro-6-(4-chloro-2-(difluoromethyl)-3-fluorophenyl)picolinate]	45 to 59

Same assay, conditions: Chenopodium album, post-emergence, 336 h, CHEAL: lambsquarters (Chenopodium album), application rate 70 (kg ai/ha; footnote: g ai/ha), read-out: Visual Growth Reduction (%) 14 Days After Application CHEAL

SMILES	pest or weed control at 70 g/ha [%]
COC(=O)c1nc(-c2ccc(Cl)c(F)c2C(F)F)cc(N)c1Cl [Compound 53, methyl 4-amino-3-chloro-6-(4-chloro-2-(difluoromethyl)-3-fluorophenyl)picolinate]	95 to 100

Same assay, conditions: Chenopodium album, post-emergence, 336 h, CHEAL: lambsquarters (Chenopodium album), application rate 140 (kg ai/ha; footnote: g ai/ha), read-out: Visual Growth Reduction (%) 14 Days After Application CHEAL

SMILES	pest or weed control at 140 g/ha [%]
COC(=O)c1nc(-c2ccc(Cl)c(F)c2C(F)F)cc(N)c1Cl [Compound 53, methyl 4-amino-3-chloro-6-(4-chloro-2-(difluoromethyl)-3-fluorophenyl)picolinate]	95 to 100

Same assay, conditions: Euphorbia heterophylla, post-emergence, 336 h, EPHHL: wild poinsettia (Euphorbia heterophylla), application rate 70 (kg ai/ha; footnote: g ai/ha), read-out: Visual Growth Reduction (%) 14 Days After Application EPHHL

SMILES	pest or weed control at 70 g/ha [%]
COC(=O)c1nc(-c2ccc(Cl)c(F)c2C(F)F)cc(N)c1Cl [Compound 53, methyl 4-amino-3-chloro-6-(4-chloro-2-(difluoromethyl)-3-fluorophenyl)picolinate]	0 to 29

Same assay, conditions: Euphorbia heterophylla, post-emergence, 336 h, EPHHL: wild poinsettia (Euphorbia heterophylla), application rate 140 (kg ai/ha; footnote: g ai/ha), read-out: Visual Growth Reduction (%) 14 Days After Application EPHHL

SMILES	pest or weed control at 140 g/ha [%]
COC(=O)c1nc(-c2ccc(Cl)c(F)c2C(F)F)cc(N)c1Cl [Compound 53, methyl 4-amino-3-chloro-6-(4-chloro-2-(difluoromethyl)-3-fluorophenyl)picolinate]	0 to 29

Same assay, conditions: Helianthus annuus, post-emergence, 336 h, HELAN: sunflower (Helianthus annuus), application rate 70 (kg ai/ha; footnote: g ai/ha), read-out: Visual Growth Reduction (%) 14 Days After Application HELAN

SMILES	pest or weed control at 70 g/ha [%]
COC(=O)c1nc(-c2ccc(Cl)c(F)c2C(F)F)cc(N)c1Cl [Compound 53, methyl 4-amino-3-chloro-6-(4-chloro-2-(difluoromethyl)-3-fluorophenyl)picolinate]	60 to 74

Same assay, conditions: Helianthus annuus, post-emergence, 336 h, HELAN: sunflower (Helianthus annuus), application rate 140 (kg ai/ha; footnote: g ai/ha), read-out: Visual Growth Reduction (%) 14 Days After Application HELAN

SMILES	pest or weed control at 140 g/ha [%]
COC(=O)c1nc(-c2ccc(Cl)c(F)c2C(F)F)cc(N)c1Cl [Compound 53, methyl 4-amino-3-chloro-6-(4-chloro-2-(difluoromethyl)-3-fluorophenyl)picolinate]	75 to 84

Same assay, conditions: Viola tricolor, post-emergence, 336 h, VIOTR: wild pansy (Viola tricolor), application rate 70 (kg ai/ha; footnote: g ai/ha), read-out: Visual Growth Reduction (%) 14 Days After Application VIOTR

SMILES	pest or weed control at 70 g/ha [%]
COC(=O)c1nc(-c2ccc(Cl)c(F)c2C(F)F)cc(N)c1Cl [Compound 53, methyl 4-amino-3-chloro-6-(4-chloro-2-(difluoromethyl)-3-fluorophenyl)picolinate]	0 to 29

Same assay, conditions: Viola tricolor, post-emergence, 336 h, VIOTR: wild pansy (Viola tricolor), application rate 140 (kg ai/ha; footnote: g ai/ha), read-out: Visual Growth Reduction (%) 14 Days After Application VIOTR

SMILES	pest or weed control at 140 g/ha [%]
COC(=O)c1nc(-c2ccc(Cl)c(F)c2C(F)F)cc(N)c1Cl [Compound 53, methyl 4-amino-3-chloro-6-(4-chloro-2-(difluoromethyl)-3-fluorophenyl)picolinate]	0 to 29

The compounds below were run on Key Grass and Sedge Weeds as well as Grass Crops (assay: Post-Emergent Test II (Table 6)). Conditions: post-emergence, 336 h, CYPSS, 70 g ai/ha, 14 days after application, read-out: Visual Growth Reduction (%) 14 Days After Application CYPSS.
Assay type: in vivo
Summary of the method: as §1

SMILES	pest or weed control at 70 g/ha [%]
COC(=O)c1nc(-c2ccc(Cl)c(F)c2C(F)F)cc(N)c1Cl [Compound 53, methyl 4-amino-3-chloro-6-(4-chloro-2-(difluoromethyl)-3-fluorophenyl)picolinate]	0 to 29
